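Where inhibition never reached the appropriate level, the endpoint shown equals the highest concentration tested. Otherwise, values were interpolated linearly from a five-concentration, 48-hour dose response in 96-well plates. At the GI50, growth is halved.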 The source made the active and inactive calls. Rule as the data show it: active = GI50 up to about 1.1 µM and inactive = higher. A value given as a limit tells only on which side of the number the result lay.

Some test systems named below: OVCAR-4; T47D; BT-549; 786-0; Malme-3M; SF-539; NCI-H522; HT-29; HOP-62; LOX IMVI; K562; SF-268; SNB-19; KM12; U-251; RXF 393; SF-295; OVCAR-3; DU-145.
What all share (assay): NCI-60 cell line screen, 48 h

In the case of `Cc1ccc2ccccc2c1CSc1nc(N)nc2c1ncn2CC(C)C`, the GI50 was 11.1 µM (inactive) in the assay on OVCAR-4; 5.05 µM (inactive) with T47D; 39.4 µM (inactive) with BT-549; 21.4 µM (inactive) in the assay with 786-0; 9.31 µM (inactive) with Malme-3M; 7.78 µM (inactive) in the assay on SF-539. The GI50 in the assay on NCI-H522 is 8.71 µM (inactive); in the assay on HT-29, 9.14 µM (inactive); with HOP-62, 28.9 µM (inactive); in the assay on LOX IMVI, 34.8 µM (inactive); in the assay on K562, 6.41 µM (inactive); in the assay with SF-268, 45.8 µM (inactive). Further, the GI50 is 48.3 µM (inactive) in the assay on SNB-19; 15.2 µM (inactive) with KM12; 18.2 µM (inactive) with U-251; 10.7 µM (inactive) in the assay on RXF 393; 5.86 µM (inactive) with SF-295; 14.4 µM (inactive) with OVCAR-3. For the same compound, the GI50 in the assay on DU-145 is 82.4 µM (inactive).
For the compound `CC[C@@]1(O)C(=O)OCc2c1cc1n(c2=O)Cc2cc3c(NC(=O)CN)cccc3nc2-1`, the GI50 with OVCAR-4 was 4.51 µM (inactive); in the assay with T47D it was < 0.0236 µM (active); with BT-549, 0.171 µM (active); in the assay with 786-0 it was 0.0612 µM (active); with Malme-3M, 1.41 µM (inactive); in the assay on SF-539, < 0.0241 µM (active). Further, the GI50 is 0.277 µM (active) with NCI-H522; 2.69 µM (inactive) with HT-29; 0.109 µM (active) with HOP-62; 0.0575 µM (active) with LOX IMVI; 1.37 µM (inactive) in the assay on K562; < 0.024 µM (active) in the assay with SF-268. Further, the GI50 in the assay with SNB-19 was 0.154 µM (active); with KM12 it was 2.96 µM (inactive); in the assay with U-251 it was 0.0906 µM (active); with RXF 393, < 0.0463 µM (active); in the assay on SF-295, 0.115 µM (active); with OVCAR-3, 2.17 µM (inactive). For the same compound, in the assay with DU-145, the GI50 is 0.065 µM (active).
For `CC(C)(C)C1CCC2c3c([nH]c4ccccc34)C3C(=O)N(c4cccc([N+](=O)[O-])c4)C(=O)C3C2C1` (stereo not drawn), the GI50 with OVCAR-4 is 25.5 µM (inactive); with T47D it was 28.8 µM (inactive); with BT-549, 17 µM (inactive); in the assay on 786-0, 17.4 µM (inactive); in the assay on Malme-3M it was 23.2 µM (inactive); in the assay on SF-539, 49.9 µM (inactive). The GI50 is 14.6 µM (inactive) in the assay with NCI-H522; 17.7 µM (inactive) in the assay on HT-29; 29.6 µM (inactive) in the assay on HOP-62; 17.8 µM (inactive) in the assay with LOX IMVI; > 100 µM (inactive) in the assay on K562; 21 µM (inactive) with SF-268. Also, the GI50 in the assay with SNB-19 was 55.8 µM (inactive); in the assay on KM12, 5.62 µM (inactive); in the assay on U-251 it was > 100 µM (inactive); with RXF 393, 54 µM (inactive); in the assay with SF-295, 53.7 µM (inactive); with OVCAR-3, 35.6 µM (inactive). Besides, the GI50 in the assay on DU-145 is 25.9 µM (inactive).
Regarding `CC(=O)NC1C(OCC(=O)NCCNc2ccc([N+](=O)[O-])c3[nH]c4ccccc4c(=O)c23)C(O)C(CO)OC1(C)OCc1ccccc1` (stereo not drawn), the GI50 in the assay on OVCAR-4 is > 100 µM (inactive); in the assay on T47D it was > 100 µM (inactive); with BT-549 it was > 100 µM (inactive); in the assay on 786-0 it was > 100 µM (inactive); in the assay with Malme-3M it was > 10 µM (inactive); with SF-539 it was > 100 µM (inactive). For the same compound, the GI50 in the assay on NCI-H522, with HT-29, in the assay on HOP-62, with LOX IMVI, in the assay with K562 and in the assay on SF-268 was > 100 µM (inactive) throughout. Also, the GI50 in the assay with SNB-19, in the assay with KM12, in the assay on U-251, in the assay with RXF 393, in the assay on SF-295 and with OVCAR-3 was > 100 µM (inactive) each time. Further, the GI50 in the assay with DU-145 is > 100 µM (inactive).
For the compound `CC(=O)OC[C@@H]1[C@H]2CC[C@]3(C)[C@@H](OC(C)=O)CC[C@H]3[C@@H]2CC[C@H]1C1(C)SCCS1`, the GI50 in the assay on OVCAR-4, with T47D, in the assay on BT-549, with 786-0, in the assay on Malme-3M and in the assay with SF-539 was > 25 µM (inactive) throughout. Also, the GI50 in the assay with NCI-H522, in the assay with HT-29, in the assay on HOP-62, with LOX IMVI, in the assay with K562 and with SF-268 was > 25 µM (inactive) throughout. Also, the GI50 in the assay on SNB-19, in the assay with KM12, in the assay on U-251, with RXF 393, in the assay on SF-295 and in the assay with OVCAR-3 was > 25 µM (inactive) each time. In addition, in the assay with DU-145, the GI50 was > 25 µM (inactive).
For `Cc1cc(-c2nc3ccc(F)cc3s2)ccc1NC(=O)C(N)CCCCN` (stereo not drawn), the GI50 in the assay on OVCAR-4 is 8.28 µM (inactive); in the assay with T47D it was 0.027 µM (active); with BT-549, 14.4 µM (inactive); with 786-0, 3.21 µM (inactive); in the assay on Malme-3M it was 18.2 µM (inactive); in the assay with SF-539 it was 3.27 µM (inactive). Also, the GI50 with NCI-H522 was 5.9 µM (inactive); in the assay on HT-29 it was 3.54 µM (inactive); with HOP-62, 3.22 µM (inactive); in the assay on LOX IMVI it was 2.3 µM (inactive); in the assay with K562 it was 3.45 µM (inactive); in the assay on SF-268 it was 6.7 µM (inactive). Moreover, the GI50 in the assay on SNB-19 was 10.2 µM (inactive); in the assay on KM12 it was 2.02 µM (inactive); in the assay with U-251, 2.11 µM (inactive); in the assay with RXF 393, 10.4 µM (inactive); in the assay on SF-295, 6.93 µM (inactive); in the assay with OVCAR-3, 7.83 µM (inactive). Moreover, the GI50 in the assay with DU-145 was 12.3 µM (inactive).
On to `C1=Cc2ccccc2C1.C=C(C)c1ccccc1.[N-]=[N+]=Nc1ccccc1`, for which the GI50 with OVCAR-4 was > 100 µM (inactive); in the assay on T47D it was 68.5 µM (inactive); with BT-549, > 100 µM (inactive); with 786-0, > 100 µM (inactive); in the assay with Malme-3M it was > 100 µM (inactive); in the assay with SF-539, > 100 µM (inactive). For the same compound, the GI50 in the assay on NCI-H522 is 34.3 µM (inactive); in the assay on HT-29 it was 42.7 µM (inactive); in the assay on HOP-62, > 100 µM (inactive); in the assay on LOX IMVI, > 100 µM (inactive); with K562, 46.9 µM (inactive); in the assay with SF-268, > 100 µM (inactive). Also, the GI50 with SNB-19 was > 100 µM (inactive); with KM12, 50.5 µM (inactive); with U-251 it was 71.3 µM (inactive); in the assay on RXF 393 it was > 100 µM (inactive); with SF-295, > 100 µM (inactive); with OVCAR-3, > 100 µM (inactive). Further, in the assay on DU-145, the GI50 was > 100 µM (inactive).

Source of the values: ChEMBL document CHEMBL1201862, “PubChem BioAssay data set” (2004).
